Measured values: patent publication US8822471B2, “Compounds, pharmaceutical compositions and uses thereof” (Boehringer Ingelheim International GmbH, priority 2011, dated 2014)

Target: T1, human GPR119 (Homo sapiens, UniProt Q8TDV5)
T1 construct: expression vector for human GPR119 cDNA (Acc. No. NP_848566); expressed in transfected cells
T1 sequence (Q8TDV5 1-335): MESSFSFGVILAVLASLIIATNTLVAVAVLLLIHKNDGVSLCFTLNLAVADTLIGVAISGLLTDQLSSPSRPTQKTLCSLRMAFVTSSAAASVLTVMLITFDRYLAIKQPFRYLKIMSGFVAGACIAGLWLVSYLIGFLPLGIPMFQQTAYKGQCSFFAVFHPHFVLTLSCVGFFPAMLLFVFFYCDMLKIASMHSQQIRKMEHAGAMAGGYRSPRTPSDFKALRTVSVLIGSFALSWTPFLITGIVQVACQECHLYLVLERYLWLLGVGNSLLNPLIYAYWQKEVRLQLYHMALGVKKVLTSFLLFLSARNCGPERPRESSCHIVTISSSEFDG
Assay: AlphaScreen cAMP assay in MIN6 cells stably transfected with human GPR119
Assay type: cell-based
Details: Min-6/hGPR119 cells, AlphaScreen cAMP Assay Kit, 45 minutes incubation at room temperature
Protocol: The compounds of formula I according to the invention modulate the activity of the G-protein-coupled receptor GPR119. The effect of the compounds on the activation of GPR119 and on the stimulation of intracellular cAMP concentration is determined using the AlphaScreen cAMP Assay Kit (Cat. No. #6760625R) made by PerkinElmer.
MIN6 cells [Miyazaki J et al. Endocrinology. 1990 July; 127(1):126-32] are stably transfected with an expression vector for human GPR119 cDNA (Acc. No. NP_848566). Min-6/hGPR119 cells are cultured in DMEM, 10% FBS, 50 μM β-mercaptoethanol, 0.3 mg/mL Geniticin, 2 mM GlutaMAX at 37° C. 5% CO2. For the assay, the cells are seeded in Optiplates (white, 384-well, 160 W-barcoded, TC, sterile with lid, Cat. No. #6007688 (Perkin Elmer); 10000 cells/well; 50 μl). The plates covered with lids are then incubated for 24 hours at 37° C./5% CO2. After the medium is aspirated from the wells completely, 10 μl of the test compound are added, the compounds are diluted using stimulating buffer (140 mM NaCl, 3.6 mM KCl, 0.5 mM NaH2PO4, 0.5 mM MgSO4, 1.5 mM CaCl2, 10 mM Hepes, 5 mM NaHCO3; pH 7.4. 0.5 mM IBMX and 0.1% BSA, the final DMSO concentration is 1%). After 45 minutes incubation at room temperature (approx. 20° C.), the cAMP concentrations are determined using the AlphaScreen cAMP Assay Kit (Cat. No. #6760625R from PerkinElmer).

Row | Compound | EC50 [nM]
1 | O=C(c1ccc(-c2cnco2)cc1)N(C1CC1)C1CCN(c2nc(CC(F)(F)F)no2)CC1 [Example 62, N-Cyclopropyl-4-oxazol-5-yl-N-{1-[3-(2,2,2-trifluoro-ethyl)-[1,2,4]oxadiazol-5-yl]-piperidin-4-yl}benzamide] | 16
2 | CCc1cnc(N2CCC(N(C(=O)c3ccc(-c4cnco4)c(F)c3)C3CC3)CC2)nc1 [Example 63, N-Cyclopropyl-N-[1-(5-ethyl-pyrimidin-2-yl)-piperidin-4-yl]-3-fluoro-4-oxazol-5-yl-benzamide] | 3
3 | CC(C)c1noc(N2CCC(N(C(=O)c3ccc(-c4cnco4)c(F)c3)C3CC3)CC2)n1 [Example 64, N-Cyclopropyl-3-fluoro-N-[1-(3-isopropyl-[1,2,4]oxadiazol-5-yl)-piperidin-4-yl]-4-oxazol-5-yl-benzamide] | 4
4 | CCCc1noc(N2CCC(N(C(=O)c3ccc(-c4cnco4)c(F)c3)C3CC3)CC2)n1 [Example 65, N-Cyclopropyl-3-fluoro-4-oxazol-5-yl-N-[1-(3-propyl-[1,2,4]oxadiazol-5-yl)-piperidin-4-yl]-benzamide] | 7
5 | Cc1cnc(N2CCC(N(C(=O)c3ccc(-c4cnco4)c(F)c3)C3CC3)CC2)cn1 [Example 66, N-Cyclopropyl-3-fluoro-N-[1-(5-methyl-pyrazin-2-yl)-piperidin-4-yl]-4-oxazol-5-yl-benzamide] | 210
6 | CC(C)(C)c1noc(N2CCC(N(C(=O)c3ccc(-c4cnco4)c(F)c3)C3CC3)CC2)n1 [Example 67, N-[1-(3-tert-Butyl-[1,2,4]oxadiazol-5-yl)-piperidin-4-yl]-N-cyclopropyl-3-fluoro-4-oxazol-5-yl-benzamide] | 188
7 | CCc1cnc(N2CCC(N(C(=O)c3ccc(-c4cnco4)c(F)c3)C3CC3)CC2)cn1 [Example 68, N-Cyclopropyl-N-[1-(5-ethyl-pyrazin-2-yl)-piperidin-4-yl]-3-fluoro-4-oxazol-5-yl-benzamide] | 211
8 | CC(C)c1noc(N2CCC(N(C(=O)c3cc(F)c(-c4cnco4)c(F)c3)C3CC3)CC2)n1 [Example 69, N-Cyclopropyl-3,5-difluoro-N-[1-(3-isopropyl-[1,2,4]oxadiazol-5-yl)-piperidin-4-yl]-4-oxazol-5-yl-benzamide] | 198
9 | Cc1cnc(N2CCC(N(C(=O)c3ccc(-c4cnco4)c(F)c3)C3CC3)CC2)nc1 [Example 70, N-Cyclopropyl-3-fluoro-N-[1-(5-methyl-pyrimidin-2-yl)-piperidin-4-yl]-4-oxazol-5-yl-benzamide] | 191
10 | O=C(c1ccc(-c2cnco2)cc1)N(C1CC1)C1CCN(c2ncc(Br)cc2F)CC1 [Example 71, N-(5′-Bromo-3′-fluoro-3,4,5,6-tetrahydro-2H-[1,2′]bipyridinyl-4-yl)-N-cyclopropyl-4-oxazol-5-yl-benzamide] | 11
11 | Cc1cnc(N2CCC(N(C(=O)c3ccc(-c4cnco4)cc3)C3CC3)CC2)c(F)c1 [Example 73, N-Cyclopropyl-N-(3′-fluoro-5′-methyl-3,4,5,6-tetrahydro-2H-[1,2′]bipyridinyl-4-yl)-4-oxazol-5-yl-benzamide] | 38
12 | O=C(c1ccc(-c2cnco2)cc1)N(C1CC1)C1CCN(c2ncc(C(F)(F)F)cc2F)CC1 [Example 74, N-Cyclopropyl-N-(3′-fluoro-5′-trifluoromethyl-3,4,5,6-tetrahydro-2H-[1,2′]bipyridinyl-4-yl)-4-oxazol-5-yl-benzamide] | 8
13 | O=C(c1ccc(-c2cnco2)cc1)N(C1CC1)C1CCN(c2nnc(-c3ccccc3)s2)CC1 [Example 79, N-Cyclopropyl-4-oxazol-5-yl-N-[1-(5-phenyl-[1,3,4]thiadiazol-2-yl)-piperidin-4-yl]-benzamide] | 75
14 | O=C(c1ccc(-c2cnco2)cc1)N(C1CC1)C1CCN(c2ccc(Cl)cn2)CC1 [Example 80, N-(5′-Chloro-3,4,5,6-tetrahydro-2H-[1,2′]bipyridinyl-4-yl)-N-cyclopropyl-4-oxazol-5-yl-benzamide] | 179
15 | COC(=O)c1cnc(N2CCC(N(C(=O)c3ccc(-c4cnco4)cc3)C3CC3)CC2)cn1 [Example 81, 5-{4-[Cyclopropyl-(4-oxazol-5-yl-benzoyl)-amino]-piperidin-1-yl}-pyrazine-2-carboxylic acid methyl ester] | 498
16 | O=C(c1ccc(-c2cnco2)cc1)N(C1CC1)C1CCN(c2nnc(C(F)(F)F)s2)CC1 [Example 87, N-Cyclopropyl-4-oxazol-5-yl-N-[1-(5-trifluoromethyl-[1,3,4]thiadiazol-2-yl)-piperidin-4-yl]-benzamide] | 25

Next, values leading:

Row | EC50 [nM] | Compound
17 | 864 | O=C(c1ccc(-c2cnco2)cc1)N(C1CC1)C1CCN(c2ccc(C3CC3)nn2)CC1 [Example 72, N-Cyclopropyl-N-[1-(6-cyclopropyl-pyridazin-3-yl)-piperidin-4-yl]-4-oxazol-5-yl-benzamide]
18 | 87 | CCCOc1cnc(N2CCC(N(C(=O)c3ccc(-c4cnco4)cc3)C3CC3)CC2)nc1 [Example 75, N-Cyclopropyl-4-oxazol-5-yl-N-[1-(5-propoxy-pyrimidin-2-yl)-piperidin-4-yl]-benzamide]
19 | 165 | CCOc1cnc(N2CCC(N(C(=O)c3ccc(-c4cnco4)cc3)C3CC3)CC2)nc1 [Example 76, N-Cyclopropyl-N-[1-(5-ethoxy-pyrimidin-2-yl)-piperidin-4-yl]-4-oxazol-5-yl-benzamide]
20 | 115 | CC(C)Oc1cnc(N2CCC(N(C(=O)c3ccc(-c4cnco4)cc3)C3CC3)CC2)nc1 [Example 77, N-Cyclopropyl-N-[1-(5-isopropoxy-pyrimidin-2-yl)-piperidin-4-yl]-4-oxazol-5-yl-benzamide]
21 | 43 | O=C(c1ccc(-c2cnco2)cc1)N(C1CC1)C1CCN(c2cnc(C3CC3)cn2)CC1 [Example 78, N-Cyclopropyl-N-[1-(5-cyclopropyl-pyrazin-2-yl)-piperidin-4-yl]-4-oxazol-5-yl-benzamide]
22 | 116 | Cc1cnc(C)c(N2CCC(N(C(=O)c3ccc(-c4cnco4)cc3)C3CC3)CC2)n1 [Example 82, N-Cyclopropyl-N-[1-(3,6-dimethyl-pyrazin-2-yl)-piperidin-4-yl]-4-oxazol-5-yl-benzamide]
23 | 10 | O=C(c1ccc(-c2cnco2)cc1)N(C1CC1)C1CCN(c2cnc(I)cn2)CC1 [Example 83, N-Cyclopropyl-N-[1-(5-iodo-pyrazin-2-yl)-piperidin-4-yl]-4-oxazol-5-yl-benzamide]
24 | 116 | COC(=O)c1cnc(N2CCC(N(C(=O)c3ccc(-c4cnco4)cc3)C3CC3)CC2)nc1 [Example 84, 2-{4-[Cyclopropyl-(4-oxazol-5-yl-benzoyl)-amino]-piperidin-1-yl}-pyrimidine-5-carboxylic acid methyl ester]
25 | 449 | O=C(c1ccc(-c2cnco2)cc1)N(C1CC1)C1CCN(c2cnccn2)CC1 [Example 85, N-Cyclopropyl-4-oxazol-5-yl-N-(1-pyrazin-2-yl-piperidin-4-yl)-benzamide]
26 | 139 | N#Cc1cnc(N2CCC(N(C(=O)c3ccc(-c4cnco4)cc3)C3CC3)CC2)cn1 [Example 86, N-[1-(5-Cyano-pyrazin-2-yl)-piperidin-4-yl]-N-cyclopropyl-4-oxazol-5-yl-benzamide]
27 | 71 | O=C(c1ccc(-c2cnco2)cc1)N(C1CC1)C1CCN(c2ncc(C3CC3)cn2)CC1 [Example 88, N-Cyclopropyl-N-[1-(5-cyclopropyl-pyrimidin-2-yl)-piperidin-4-yl]-4-oxazol-5-yl-benzamide]
